Key:
Assay in all cases: Antibacterial assay, minimal inhibitory concentration (MIC), microtiter broth dilution
Type in all cases: cell-based
[1] = test system: E.coli ATCC strain 25922; conditions: E. coli ATCC 25922; Mueller Hinton broth; 16-20 hours at 37° C.
Source text: (§1) Table I, which follows, indicates the Minimal Inhibitory Concentration (MIC) in μg/ml of Peptides (SEQ ID NO:1) through (SEQ ID NO:27 ) against S. aureus strain ATCC 25923, P. aeruginosa strain ATCC 27853, and E.coli ATCC strain 25922. (Legend) The procedure for the antibacterial assay is based upon the guidelines of the National Committee for Clinical Laboratory Standards, Document M7-T2, Volume 8, No. 8, 1988. Stock solutions of the hereinabove described peptides in accordance with the present invention are prepared at a concentration of 512 μg/ml in sterile deionized distilled water and stored at -70° C. The stock peptide solution is diluted in serial dilutions (1:2) down the wells of a microtiter plate so that the final concentrations of peptides in the wells are 0.25, 0.50, 1, 2, 4, 8, 16, 32, 64, 128, and 256 μg/ml. 1-5×10^5 CFUs/ml of either S. aureus ATCC 25923, E. coli ATCC 25922, or P. aeruginosa ATCC 27853 were added to the wells in full strength Mueller Hinton broth (BBL 11443) from a mid-log culture. The inoculum is standardized spectrophotometrically at 600 nm and is verified by colony counts. The plates are incubated for 16-20 hours at 37° C., and the minimal inhibitory concentration (MIC) for each peptide is determined. Minimal inhibitory concentration is defined as the lowest concentration of peptide which produces a clear well in the microtiter plate.

[2] = test system: P. aeruginosa strain ATCC 27853; conditions: P. aeruginosa ATCC 27853; Mueller Hinton broth; 16-20 hours at 37° C.
Source text: as §1

[3] = test system: S. aureus strain ATCC 25923; conditions: S. aureus ATCC 25923; Mueller Hinton broth; 16-20 hours at 37° C.
Source text: as §1

Substance | Minimal Inhibitory Concentration (MIC), Activity, E. coli [1] | Minimal Inhibitory Concentration (MIC), Activity, P. aeruginosa [2] | Minimal Inhibitory Concentration (MIC), Activity, S. aureus [3]
SEQ ID NO: 21: biologically active amphiphilic peptide (GLASLLGKALKAALKIGANMLGGSPQQ) | 32 µg/mL | 128 µg/mL | 64 µg/mL
SEQ ID NO: 22: biologically active amphiphilic peptide (GFGSFLGKALKAALKIGANLLGGTPQQ) | 8,16 μg/ml | 16,32 μg/ml | 16 µg/mL
SEQ ID NO: 23: biologically active amphiphilic peptide (GFAKFLGKALKAALKIGANLLGGTPQQ) | 4,8 μg/ml | 8,16 μg/ml | 8 µg/mL
SEQ ID NO: 24: biologically active amphiphilic peptide (GFGKFLGKALKAALKIGANLLGGTPQQ) | 8,16 μg/ml | 16 µg/mL | 8 µg/mL
SEQ ID NO: 25: biologically active amphiphilic peptide (GFKKFLGKALKAALKIGANLLGGTPQQ) | 8,32 μg/ml | 32 µg/mL | 8,16 μg/ml
SEQ ID NO: 26: biologically active amphiphilic peptide (GLASFLGKALKAALKIGANLLGGTPQQ) | 8,16 μg/ml | 64,128 μg/ml | 16,32 μg/ml
SEQ ID NO: 27: biologically active amphiphilic peptide (GLASLLGKALKAALKIGANLLGGTPQQ) | 32 µg/mL | 128 µg/mL | 32 µg/mL
